According to PMC7016291 (Acta Pharmaceutica Sinica. B, 2019):
Values joined by “and” are separate entries in the source; they are usually repeats but may differ in a detail not shown here. Identical values can stand only once. Like-named read-outs stand apart in the source and are kept apart here.

Columns and labels:
MT-4 cells = assay: Cytotoxicity in uninfected MT-4 cells; type: cell-based; details: uninfected MT-4 cell viability reduced by 50%
HIV-2 (ROD) = assay: Anti-HIV activity in MT-4 cells; type: cell-based
WT HIV-1 RT = WT HIV-1 RT (Human immunodeficiency virus type 1 group M subtype B, UniProt P03366); assay: HIV-1 RT inhibition assay; type: biochemical; details: for RT IC50: WT HIV-1 RT, mean of at least two separate experiments
HIV-1 RT RNase H = HIV-1 RT RNase H (Human immunodeficiency virus type 1 group M subtype B, UniProt P03366); assay: HIV-1 RT RNase H inhibition; type: biochemical; details: for RNase H IC50: mean of four separate experiments
[1] = Kinetic aqueous solubility; details: kinetic from dmso stock
[2] = Cytotoxicity in uninfected MT-4 cells; type: cell-based; details: human, uninfected MT-4 cells
HIV-1 K103N = assay: Anti-HIV-1 activity against mutant strain K103N in MT-4 cells; type: cell-based
HIV-1 F227L + V106A = assay: Anti-HIV-1 activity against double mutant F227L + V106A in MT-4 cells; type: cell-based
HIV-1 Y188L = assay: Anti-HIV-1 activity against mutant strain Y188L in MT-4 cells; type: cell-based
HIV-1 Y181C = assay: Anti-HIV-1 activity against mutant strain Y181C in MT-4 cells; type: cell-based
[3] = test system: HIV-1 RES056 (K103N/Y181C); assay: Anti-HIV-1 activity against double mutant RES056 in MT-4 cells; type: cell-based
HIV-1 L100I = assay: Anti-HIV-1 activity against mutant strain L100I in MT-4 cells; type: cell-based
HIV-1 E138K = assay: Anti-HIV-1 activity against mutant strain E138K in MT-4 cells; type: cell-based
[4] = cited from earlier work
[5] = Plasma protein binding, dialysis equilibrium method, rat
[6] = Plasma protein binding, dialysis equilibrium method, human
[7] = read-out: EC50 ROD, MT-4 cells, HIV-2 strain ROD
[8] = aqueous solution at pH 2.0, pH 2, aqueous buffer
[9] = aqueous solution at pH 7.0, pH 7, aqueous buffer
[10] = aqueous solution at pH 7.4, pH 7.4, aqueous buffer
[11] = Human immunodeficiency virus 1, MT4, read-out: EC50 K103N
[12] = Human immunodeficiency virus 2, MT4, read-out: EC50 ROD
[13] = Human immunodeficiency virus 1, MT4, read-out: EC50 F227L + V106A
[14] = Human immunodeficiency virus 1, MT4, read-out: EC50 Y188L
[15] = Human immunodeficiency virus 1, MT4, read-out: EC50 Y181C
[16] = Human immunodeficiency virus 1, MT4, read-out: EC50 RES056
[17] = Human immunodeficiency virus 1, MT4, read-out: EC50 L100I
[18] = Human immunodeficiency virus 1, MT4, read-out: EC50 E138K

| Structure (SMILES) | solubility kinetic ([1]; FaSSIF) | solubility kinetic [1, 8] | solubility kinetic [1, 9] | solubility kinetic [1, 10] | CC50 at 4 days [2] | EC50 (HIV-1 K103N; [11]) [µM] | EC50 (HIV-2 (ROD); [12]) [µM] | EC50 (HIV-1 F227L + V106A; [13]) [µM] | EC50 (HIV-1 Y188L; [14]) [µM] | EC50 (HIV-1 Y181C; [15]) [µM] | EC50 [3, 16] [µM] | IC50 (WT HIV-1 RT) [µM] | IC50 (HIV-1 RT RNase H) [µM] | EC50 (HIV-1 L100I; [17]) [µM] | EC50 (HIV-1 E138K; [18]) [µM] | other results |
| --- | --- | --- | --- | --- | --- | --- | --- | --- | --- | --- | --- | --- | --- | --- | --- | --- |
| COC(=O)CNc1nc(Nc2ccc(C#N)cc2)nc(Oc2c(C)cc(-c3ccc(C#N)cc3)cc2C)n1 [Compound 5a, Methyl (4-((4ʹ-cyano-3,5-dimethyl-[1,1ʹ-biphenyl]-4-yl)oxy)-6-((4-cyanophenyl)-amino)-1,3,5-triazin-2-yl) glycinate] |  |  |  |  |  |  |  |  |  |  |  |  |  |  |  | CC50 (MT-4 cells): > 125 µM; EC50 (HIV-2 (ROD); [7]): 0.56 ± 0.14 µM; RT IC50 (WT HIV-1 RT): 0.047 ± 0.003 µg/mL; RNase H IC50 (HIV-1 RT RNase H): >600 µg/mL |
| Cc1cc(-c2ccc(C#N)cc2)cc(C)c1Oc1nc(Nc2ccc(C#N)cc2)nc(N2CCC(O)C2)n1 (centres unmarked) [Compound 5h, 4ʹ-((4-((4-Cyanophenyl)amino)-6-(3-hydroxypyrrolidin-1-yl)-1,3,5-triazin-2-yl)-oxy)-3ʹ,5ʹ-dimethyl-[1,1ʹ-biphenyl]-4-carbonitrile] | 14.7 µg/mL and 29.2 µM | 3.45 µg/mL and 6.85 µM | < 0.786 µg/mL and < 1.56 µM | < 0.786 µg/mL and < 1.56 µM | 5.72 ± 0.08 µM | 0.0036 ± 0.0009 | 2.91 ± 0.98 | 0.93 ± 0.11 | 0.023 ± 0.006 | 0.0092 ± 0.0008 | 0.19 ± 0.05 | 0.161 | > 828 | 0.0082 ± 0.0022 | 0.0065 ± 0.0006 | activity against RNase H (HIV-1 RT RNase H): slight activity |
| COC(=O)CNc1nc(Nc2ccc(C#N)cc2)nc(Nc2c(C)cc(-c3ccc(C#N)cc3)cc2C)n1 [Compound 6b, Methyl (4-((4ʹ-cyano-3,5-dimethyl-[1,1ʹ-biphenyl]-4-yl)amino)-6-((4-cyanophenyl)amino)-1,3,5-triazin-2-yl) glycinate] |  |  |  |  |  |  |  |  |  |  |  |  |  |  |  | CC50 (MT-4 cells): > 125 µM; EC50 (HIV-2 (ROD); [7]): 21.5 µM; RT IC50 (WT HIV-1 RT): 0.033 ± 0.004 µg/mL; RNase H IC50 (HIV-1 RT RNase H): >600 µg/mL |
| Cc1cc(-c2ccc(C#N)cc2)cc(C)c1Nc1nc(NCC2CCOC2)nc(Nc2ccc(C#N)cc2)n1 (centres unmarked) [Compound 6e, 4ʹ-((4-((4-Cyanophenyl)amino)-6-(((tetrahydrofuran-3-yl)methyl)amino)-1,3,5-triazin-2-yl)amino)-3ʹ,5ʹ-dimethyl-[1,1ʹ-biphenyl]-4-carbonitrile] | 60.5 µg/mL and 117 µM | 12.1 µg/mL and 23.4 µM | < 0.806 µg/mL and < 1.56 µM | < 0.806 µg/mL and < 1.56 µM | > 125 µM | 0.0034 ± 0.0005 | 7.91 ± 5.7 | ≥ 16.4 | 0.05 ± 0.008 | 0.011 ± 0.001 | 0.06 ± 0.007 | 0.106 | > 1160 | 0.022 ± 0.006 | 0.0053 ± 0.0033 |  |
| Cc1cc(-c2ccc(C#N)cc2)cc(C)c1Nc1nc(Nc2ccc(C#N)cc2)nc(N2CCN(C)CC2)n1 [Compound 6i, 4ʹ-((4-((4-Cyanophenyl)amino)-6-(4-methylpiperazin-1-yl)-1,3,5-triazin-2-yl)amino)-3ʹ,5ʹ-dimethyl-[1,1ʹ-biphenyl]-4-carbonitrile] | 60.6 µg/mL and 117 µM | 77.3 µg/mL and 150 µM | < 0.804 µg/mL and < 1.56 µM | < 0.804 µg/mL and < 1.56 µM | 3.69 ± 2.98 µM | 0.0074 ± 0.0021 | > 3.69 | ≥ 3.69 | 0.067 ± 0.016 | 0.017 ± 0.005 | 0.35 ± 0.08 | 0.227 | > 1160 | 0.029 | 0.01 ± 0.002 |  |
| Cc1cc(-c2ccc(C#N)cc2)cc(C)c1Nc1nc(Nc2ccc(C#N)cc2)nc(N2CCC(O)C2)n1 (centres unmarked) [Compound 6k, 4ʹ-((4-((4-Cyanophenyl)amino)-6-(3-hydroxypyrrolidin-1-yl)-1,3,5-triazin-2-yl)-amino)-3ʹ,5ʹ-dimethyl-[1,1ʹ-biphenyl]-4-carbonitrile] | 53.4 µg/mL and 104 µM | 53.7 µg/mL and 104 µM | < 0.784 µg/mL and < 1.56 µM | < 0.784 µg/mL and < 1.56 µM | 4.54 ± 2.56 µM | 0.0023 ± 0.0005 | > 4.54 | 1.04 | 0.01 ± 0.003 | 0.003 ± 0.0002 | 0.06 | 0.103 | > 1190 | 0.0041 ± 0.0005 | 0.0035 ± 0.0008 |  |
| Cc1cc(-c2ccc(C#N)cc2)cc(C)c1Nc1nc(NCCN2CCN(C)CC2)nc(Nc2ccc(C#N)cc2)n1 [Compound 6n, 4ʹ-((4-((4-Cyanophenyl)amino)-6-((2-(4-methylpiperazin-1-yl)ethyl)amino)-1,3,5-triazin-2-yl)amino)-3ʹ,5ʹ-dimethyl-[1,1ʹ-biphenyl]-4-carbonitrile] |  |  |  |  | 2.34 ± 0.64 µM |  | > 2.34 |  |  |  |  | 0.156 | > 1070 |  |  |  |
| O=C1Nc2ccc(Cl)cc2[C@@](C#CC2CC2)(C(F)(F)F)O1 [EFV, reference compound] |  |  |  |  |  |  |  |  |  |  |  |  |  |  |  | CC50 (MT-4 cells): >2.0 µM; EC50 (HIV-1 K103N; read-out: EC50 K103N, MT-4 cells, single mutant): 0.03 ± 0.011 µM; EC50 (HIV-1 F227L + V106A; read-out: EC50 F227L + V106A, MT-4 cells, double mutant): 0.084 ± 0.02 µM; EC50 (HIV-1 Y188L; read-out: EC50 Y188L, MT-4 cells, single mutant): 0.082 ± 0.007 µM; EC50 (HIV-1 Y181C; read-out: EC50 Y181C, MT-4 cells, single mutant): 0.0013 ± 0.0001 µM; EC50 ([3]; read-out: EC50 RES056, MT-4 cells, double mutant K103N/Y181C): 0.071 ± 0.036 µM; EC50 (HIV-1 L100I; read-out: EC50 L100I, MT-4 cells, single mutant): 0.014 µM; EC50 (HIV-1 E138K; read-out: EC50 E138K, MT-4 cells, single mutant): 0.0015 ± 0.0001 µM |
| Cc1cc(C#N)cc(C)c1Oc1nc(Nc2ccc(C#N)cc2)nc(N)c1Br [ETR, etravirine, reference compound] | 13.2 µg/mL and 30.3 µM | 127 µg/mL and 291 µM | < 1 µg/mL and < 2.3 µM | < 1 µg/mL and < 2.3 µM | > 2 µg/mL |  |  |  |  |  |  |  |  |  |  | aqueous solubility [4]: lower than 1 μg/mL; CC50 (MT-4 cells; listed as ETV): >2.0 µM |
| Cc1ccnc2c1NC(=O)c1cccnc1N2C1CC1 [NVP, nevirapine, reference compound] |  |  |  |  | > 4 µg/mL | 3.19 ± 3.9 |  | > 4 | > 4 | > 4 | > 4 |  |  | 0.46 ± 0.11 | 0.057 ± 0.006 |  |
| CC(=O)CC(c1ccccc1)c1c(O)c2ccccc2oc1=O (centres unmarked) [Warfarin, reference compound] |  |  |  |  |  |  |  |  |  |  |  |  |  |  |  | recovery at 2 μmol/L [5]: 99%; recovery at 2 μmol/L [6]: 86% |
